Measurements taken from PMC10814857, “Functional Classification and Interaction Selectivity Landscape of the Human SH3 Domain Superfamily” (Cells, 2024).
Peptide text beside a SMILES is read from it.

How the values were obtained:
Assay in all cases: Fluorescence polarization SH3 domain-PRP binding
[1] = molecular target: T1, ITSN1-4 SH3 domain (aa 1070-1138) (Homo sapiens, UniProt Q15811); conditions: FP, 0.2 µM fluorescein-labeled peptide, SH3 domain 0-200 µM, Tris/HCl pH 7.5, 25 °C, quadratic fit
T1 construct: 1070-1138; GST (N); made in house; host or cells: Escherichia coli CodonPlus, Rosetta, BL21(DE3)
T1 sequence (Q15811 1070-1138): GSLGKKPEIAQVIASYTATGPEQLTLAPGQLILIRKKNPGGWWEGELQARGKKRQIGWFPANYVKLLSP
Method: (§1) The interaction between fluorescein-labeled proline-rich peptides (0.2 µM) and increasing concentrations of SH3 domains (ranging from 0 to 200 µM) was measured in a buffer (containing 30 mM Tris/HCl (pH 7.5), 5 mM MgCl2, and 3 mM DTT at 25 °C) in a total volume of 200 µL using a Fluoromax 4 fluorimeter in polarization mode and a quartz glass fluorescence cuvette (Hellma Ultra-Micro Cuvette 105.250-QS, Thermo Fisher Scientific, Waltham, MA USA). Excitation was performed at 470 nm and emission was measured at 560 nm. Dissociation constants (Kd) were determined by fitting the concentration-dependent binding curve to a quadratic ligand binding equation.
(§2) Fluorescence polarization measurements were performed to determine the binding affinities of SH3 domain–PRP interaction pairs from the dot blot analysis. SH3 proteins were titrated at increasing concentrations against fluorescent PRPs, which were kept at a constant concentration of 0.2 µM. GRB2-2^W193K, which is defective in the binding of PRPs such as RP1, was used as a negative control as previously described. […] The resulting data (Figure S6) allowed the evaluation of equilibrium dissociation constants (Kd) for 45 interactions between the SH3 domains and the PRPs (Figure 2B; Table S6).
(§3) Figure S6. Interactions of the SH3 domains with fluorescent PRPs measured by fluorescence polarization.
(§4) Fluorescent peptides (0.2 µM) were titrated with increasing concentrations of the corresponding SH3 domains.
(§5) GRB2-2W193K, defective in the binding of PRPs such as RP1, was used as a negative control as previously described. The x-axis represents SH3 domain concentrations as GST fusion proteins in µM, while the y-axis represents fluorescence polarization. The equilibrium dissociation constants (Kd) for the respective measurements were determined by fitting the titration curves to a quadratic ligand-binding equation (solid lines). All Kd values are […]
(§6) Error bars are derived from the fitting errors.

[2] = molecular target: T2, SRC SH3 domain (aa 77-140) (Homo sapiens, UniProt P12931); conditions: FP, 0.2 µM fluorescein-labeled peptide, SH3 domain 0-200 µM, Tris/HCl pH 7.5, 25 °C, quadratic fit
T2 construct: 77-140; GST (N); made in house; host or cells: Escherichia coli CodonPlus, Rosetta, BL21(DE3)
Method: as §1, §2, §3, §4, §5, §6

[3] = molecular target: T3, SH3PXD2A-1 SH3 domain (aa 166-225) (Homo sapiens, UniProt Q5TCZ1); conditions: FP, 0.2 µM fluorescein-labeled peptide, SH3 domain 0-200 µM, Tris/HCl pH 7.5, 25 °C, quadratic fit
T3 construct: 166-225; GST (N); made in house; host or cells: Escherichia coli CodonPlus, Rosetta, BL21(DE3)
T3 sequence (Q5TCZ1 166-225): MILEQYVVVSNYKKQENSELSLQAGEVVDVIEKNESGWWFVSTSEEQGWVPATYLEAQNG
Method: as §1, §2, §3, §4, §5, §6

[4] = molecular target: T4, NCK1-2 SH3 domain (aa 106-165) (Homo sapiens, UniProt P16333); conditions: FP, 0.2 µM fluorescein-labeled peptide, SH3 domain 0-200 µM, Tris/HCl pH 7.5, 25 °C, quadratic fit, read-out: Kd
T4 construct: 106-165; GST (N); made in house; host or cells: Escherichia coli CodonPlus, Rosetta, BL21(DE3)
Method: as §1, §2, §3, §4, §5, §6

[5] = molecular target: T5, RIMBP3B-1 SH3 domain (aa 832-899) (Homo sapiens, UniProt A6NNM3); conditions: FP, 0.2 µM fluorescein-labeled peptide, SH3 domain 0-200 µM, Tris/HCl pH 7.5, 25 °C, quadratic fit
T5 construct: 832-899; GST (N); made in house; host or cells: Escherichia coli CodonPlus, Rosetta, BL21(DE3)
T5 sequence (A6NNM3 832-899): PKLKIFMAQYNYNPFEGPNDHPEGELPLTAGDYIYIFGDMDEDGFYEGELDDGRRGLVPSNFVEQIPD
Method: as §1, §2, §3, §4, §5, §6

[6] = molecular target: T6, SH3GLB1 SH3 domain (aa 305-365) (Homo sapiens, UniProt Q9Y371); conditions: FP, 0.2 µM fluorescein-labeled peptide, SH3 domain 0-200 µM, Tris/HCl pH 7.5, 25 °C, quadratic fit
T6 construct: 305-365; GST (N); made in house; host or cells: Escherichia coli CodonPlus, Rosetta, BL21(DE3)
T6 sequence (Q9Y371 305-365): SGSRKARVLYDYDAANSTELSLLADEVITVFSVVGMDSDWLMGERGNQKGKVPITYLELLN
Method: as §1, §2, §3, §4, §5, §6

NPHP1 SH3 domain = molecular target: T7, NPHP1 SH3 domain (Homo sapiens, UniProt O15259); conditions: FP, 0.2 µM fluorescein-labeled peptide, SH3 domain 0-200 µM, Tris/HCl pH 7.5, 25 °C, quadratic fit
T7 construct: GST (N); made in house; host or cells: Escherichia coli CodonPlus, Rosetta, BL21(DE3)
T7 sequence (O15259 152-212 limits assumed): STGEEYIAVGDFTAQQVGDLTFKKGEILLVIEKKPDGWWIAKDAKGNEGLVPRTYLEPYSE
Method: as §1, §2, §3, §4, §5, §6

[7] = molecular target: T8, NCK1-1 SH3 domain (aa 2-61) (Homo sapiens, UniProt P16333); conditions: FP, 0.2 µM fluorescein-labeled peptide, SH3 domain 0-200 µM, Tris/HCl pH 7.5, 25 °C, quadratic fit, read-out: Kd
T8 construct: 2-61; GST (N); made in house; host or cells: Escherichia coli CodonPlus, Rosetta, BL21(DE3)
Method: as §1, §2, §3, §4, §5, §6

[8] = molecular target: T9, NCK1-3 SH3 domain (aa 190–252) (Homo sapiens, UniProt P16333); conditions: NCK1-3 (wt); FP, 0.2 µM fluorescein-labeled peptide, SH3 domain 0-200 µM, Tris/HCl pH 7.5, 25 °C, quadratic fit; read-out: Kd
T9 construct: 190–252; GST (N); made in house; host or cells: Escherichia coli CodonPlus, Rosetta, BL21(DE3)
Method: as §1, §2, §3, §4, §5, §6

[9] = molecular target: T10, RASA1 SH3 domain (aa 279–341) (Homo sapiens, UniProt P20936); conditions: FP, 0.2 µM fluorescein-labeled peptide, SH3 domain 0-200 µM, Tris/HCl pH 7.5, 25 °C, quadratic fit
T10 construct: 279–341; GST (N); made in house; host or cells: Escherichia coli CodonPlus, Rosetta, BL21(DE3)
T10 sequence (P20936 279-341): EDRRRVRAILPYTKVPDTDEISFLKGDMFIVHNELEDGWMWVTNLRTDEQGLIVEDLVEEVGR
Method: as §1, §2, §3, §4, §5, §6

[10] = molecular target: T11, SORBS1-1 SH3 domain (aa 793-852) (Homo sapiens, UniProt Q9BX66); conditions: FP, 0.2 µM fluorescein-labeled peptide, SH3 domain 0-200 µM, Tris/HCl pH 7.5, 25 °C, quadratic fit
T11 construct: 793-852; GST (N); made in house; host or cells: Escherichia coli CodonPlus, Rosetta, BL21(DE3)
T11 sequence (Q9BX66 793-852): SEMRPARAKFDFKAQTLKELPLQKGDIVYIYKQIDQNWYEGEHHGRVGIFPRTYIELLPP
Method: as §1, §2, §3, §4, §5, §6

[11] = molecular target: T12, SNX9 SH3 domain (aa 1-62) (Homo sapiens, UniProt Q9Y5X1); conditions: FP, 0.2 µM fluorescein-labeled peptide, SH3 domain 0-200 µM, Tris/HCl pH 7.5, 25 °C, quadratic fit
T12 construct: 1-62; GST (N); made in house; host or cells: Escherichia coli CodonPlus, Rosetta, BL21(DE3)
Method: as §1, §2, §3, §4, §5, §6

Measured: Kd

T2 sequence (P12931 77-140 limits assumed): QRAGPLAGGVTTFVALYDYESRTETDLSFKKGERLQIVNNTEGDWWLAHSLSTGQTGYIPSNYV
T12 sequence (Q9Y5X1 1-62): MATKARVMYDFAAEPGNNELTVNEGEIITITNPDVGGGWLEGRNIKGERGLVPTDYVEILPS

CC(C)C[C@H](NC(=O)[C@@H]1CCCN1C(=O)[C@@H]1CCCN1C(=O)[C@H](CO)NC(=O)[C@@H]1CCCN1C(=O)[C@H](CC(C)C)NC(=O)[C@H](Cc1c[nH]cn1)NC(=O)[C@@H](N)CCCNC(=N)N)C(=O)N[C@H](C(=O)N[C@@H](CCC(N)=O)C(=O)O)[C@@H](C)O [Peptide P8] (H-RHLPSPPLTQ-OH; N-terminus and C-terminus assumed)
> 200 µM: all assays above

CC(C)[C@H](N)C(=O)N1CCC[C@H]1C(=O)N[C@H](C(=O)N1CCC[C@H]1C(=O)N1CCC[C@H]1C(=O)N1CCC[C@H]1C(=O)N[C@H](C(=O)N1CCC[C@H]1C(=O)N1CCC[C@H]1C(=O)N[C@@H](CCCNC(=N)N)C(=O)N[C@@H](CCCNC(=N)N)C(=O)N[C@@H](CCCNC(=N)N)C(=O)O)C(C)C)C(C)C [RP1, reference compound]
24.6 µM: [8]
2 µM: [4]
> 200 µM: all other assays above

CC[C@H](C)[C@H](NC(=O)[C@H](CCCCN)NC(=O)[C@H](CO)NC(=O)[C@@H]1CCCN1C(=O)[C@H](CO)NC(=O)[C@H](CO)NC(=O)[C@H](CCC(=O)O)NC(=O)[C@H](C)NC(=O)[C@@H]1CCCN1C(=O)[C@H](C)NC(=O)[C@H](CO)NC(=O)[C@H](CCC(=O)O)NC(=O)[C@@H]1CCCN1C(=O)[C@H](CCCNC(=N)N)NC(=O)[C@H](CCCNC(=N)N)NC(=O)[C@H](CCCNC(=N)N)NC(=O)[C@@H]1CCCN1C(=O)[C@@H]1CCCN1C(=O)[C@@H](NC(=O)[C@@H]1CCCN1C(=O)[C@@H]1CCCN1C(=O)[C@@H]1CCCN1C(=O)[C@@H](NC(=O)[C@@H]1CCCN1C(=O)[C@@H](NC(=O)[C@@H](N)CCC(=O)O)C(C)C)C(C)C)C(C)C)C(=O)O [Peptide P3] (H-EVPVPPPVPPRRRPESAPAESSPSKI-OH)
18 µM: [3]
2 µM: [2]
> 200 µM: all other assays above

CC(C)C[C@H](NC(=O)[C@@H](NC(=O)[C@@H](N)C(C)C)[C@@H](C)O)C(=O)N1CCC[C@H]1C(=O)N[C@@H](Cc1c[nH]cn1)C(=O)NCC(=O)N1CCC[C@H]1C(=O)N[C@@H](CCCNC(=N)N)C(=O)N[C@@H](CO)C(=O)N[C@@H](C)C(=O)O [Peptide P2] (H-VTLPHGPRSA-OH)
44 µM: [3]
21 µM: [5]
> 200 µM: all other assays above
